Laboratory results published in ChEMBL document CHEMBL1201862, “PubChem BioAssay data set” (2004).
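Test compounds were applied to cells in 96-well plates for 48 hours at 5 doses. GI50 is the concentration that inhibits growth by half.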 The source made the active and inactive calls. Cut-off read from the data, not from the text of the source: active = GI50 up to about 1.1 µM and inactive = higher.

How the values were obtained:
Test in all cases: NCI tumour cell line growth inhibition, 48 h
[1] = system: DLD-1
[2] = system: DMS-273
[3] = system: SNB-78
[4] = system: XF498
[5] = system: KM-20L2
[6] = system: DMS-114
[7] = system: M19-MEL
[8] = system: HOP-18
[9] = system: RXF 631

Structure (SMILES)	GI50 [1]	GI50 [2]	GI50 [3]	GI50 [4]	GI50 [5]	GI50 [6]	GI50 [7]	GI50 [8]	GI50 [9]
OCCCCOC(c1ccccc1)(c1ccccc1)c1ccccc1	> 100 µM (inactive)	> 100 µM (inactive)	> 100 µM (inactive)	> 100 µM (inactive)	> 100 µM (inactive)	> 100 µM (inactive)			
CC(=O)Nc1ccccc1-c1cnc2ccccc2n1	> 100 µM (inactive)		> 100 µM (inactive)	29.6 µM (inactive)	> 100 µM (inactive)	> 100 µM (inactive)	> 100 µM (inactive)	> 100 µM (inactive)	
Cc1c(/C=N/NC(=O)c2ccccc2)c(=O)n(-c2ccccc2)n1C	> 100 µM (inactive)	> 100 µM (inactive)	> 100 µM (inactive)	> 100 µM (inactive)	> 100 µM (inactive)	> 100 µM (inactive)	> 100 µM (inactive)	> 100 µM (inactive)	
CCc1cc(Cc2ccc(C)c(NC(=O)C(=O)C3C(=O)NC(=O)NC3=O)c2CC)cc(C)c1NC(=O)C(=O)C1C(=O)NC(=O)NC1=O	> 100 µM (inactive)	> 100 µM (inactive)	> 100 µM (inactive)		> 100 µM (inactive)	> 100 µM (inactive)	> 100 µM (inactive)		> 100 µM (inactive)
CC(=O)Nc1ccc(C(=O)NN2C(=O)C(Cl)C2c2ccc(O)cc2)cc1 (centres undefined)	> 100 µM (inactive)	> 100 µM (inactive)	> 100 µM (inactive)	52.8 µM (inactive)	> 100 µM (inactive)		> 100 µM (inactive)		
N#CC1=C(N)N2C(=O)/C(=C/c3ccccc3)SC2C(c2nc3ccccc3[nH]2)=C1c1ccccc1 (centres undefined)	3.26 µM (inactive)	2.07 µM (inactive)	2.52 µM (inactive)	2.11 µM (inactive)	2.75 µM (inactive)	2.16 µM (inactive)	2.88 µM (inactive)		
CC1=CC(=O)NP(=O)(C23CC4CC(CC(C4)C2)C3)N1 (centres undefined)	> 100 µM (inactive)	> 100 µM (inactive)	> 100 µM (inactive)	> 100 µM (inactive)	> 100 µM (inactive)		> 100 µM (inactive)	> 100 µM (inactive)	> 100 µM (inactive)
c1ccc2[nH]c(-c3nc4ccccc4o3)nc2c1	> 100 µM (inactive)	> 100 µM (inactive)	> 100 µM (inactive)	> 100 µM (inactive)	> 100 µM (inactive)	> 100 µM (inactive)	> 100 µM (inactive)		
O=C1OC(O)C(Oc2c(Cl)cccc2Cl)=C1Cl (centres undefined)	15.7 µM (inactive)	15.8 µM (inactive)	36.1 µM (inactive)		17.8 µM (inactive)			19.1 µM (inactive)	
Cc1cc(NS(=O)(=O)c2ccc(NC(=O)c3ccc(Cl)c4c(Nc5ccc(S(N)(=O)=O)cc5)c5ccccc5nc34)cc2)no1	21.7 µM (inactive)	21.5 µM (inactive)	36.8 µM (inactive)	19.5 µM (inactive)	24.5 µM (inactive)	20.2 µM (inactive)	20 µM (inactive)	30.1 µM (inactive)	21.6 µM (inactive)
CCOC(=O)CNC1C(NC(C)=O)C(OC)OC2COC(c3ccccc3)OC21 (centres undefined)		> 100 µM (inactive)	> 100 µM (inactive)		> 100 µM (inactive)	> 100 µM (inactive)	> 100 µM (inactive)	> 100 µM (inactive)	> 100 µM (inactive)
CC(C(=O)c1ccccc1)C1(O)C(=O)Nc2ccccc21 (centres undefined)	> 100 µM (inactive)	> 100 µM (inactive)	> 100 µM (inactive)		> 100 µM (inactive)	> 100 µM (inactive)	> 100 µM (inactive)	> 100 µM (inactive)	> 100 µM (inactive)
Cc1ccc(C(=O)NCc2ccccc2)cc1/N=N/N(C)C	> 100 µM (inactive)	> 100 µM (inactive)	> 100 µM (inactive)		65.9 µM (inactive)		> 100 µM (inactive)		
COC(=O)[C@H](CC(C)C)NC(=O)[C@H](Cc1ccccc1)N1CC2C=CC1C2 (some centres undefined)		> 100 µM (inactive)		> 100 µM (inactive)	> 100 µM (inactive)	> 100 µM (inactive)	> 100 µM (inactive)	> 100 µM (inactive)	
CC1(C)CC(=O)C(CC2C(=O)c3ccccc3C2=O)C(=O)C1	> 100 µM (inactive)	> 100 µM (inactive)	> 100 µM (inactive)		> 100 µM (inactive)	> 100 µM (inactive)	> 100 µM (inactive)	> 100 µM (inactive)	
COc1cc2c(c(OC)c1OC)-c1ccc(SC)c(=O)cc1C(CC(=O)Oc1cccc(C#N)c1)C2 (centres undefined)	0.388 µM (active)	0.2 µM (active)	0.57 µM (active)	0.316 µM (active)	0.208 µM (active)	0.251 µM (active)	0.303 µM (active)	> 100 µM (inactive)	
CC(=O)NC(CCCCN)C(=O)NCc1ccccc1 (centres undefined)	> 100 µM (inactive)	> 100 µM (inactive)		> 100 µM (inactive)	> 100 µM (inactive)	> 100 µM (inactive)	> 100 µM (inactive)		
COc1ccc2c(c1)C1(C=N2)CCN(C(C)=O)CC1	> 100 µM (inactive)	> 100 µM (inactive)	> 100 µM (inactive)		> 100 µM (inactive)	60.5 µM (inactive)	> 100 µM (inactive)	41.5 µM (inactive)	> 100 µM (inactive)
Cc1nc(-c2nc(C)c(C(=O)NN(C)C)s2)sc1C(=O)NN(C)C	33.9 µM (inactive)	16.2 µM (inactive)	> 100 µM (inactive)	> 100 µM (inactive)	> 100 µM (inactive)		> 100 µM (inactive)	> 100 µM (inactive)	
COc1cc(/C=C2\[C@H]3c4c(c(OC)c(C)c(OC)c4OC)C[C@@H](C(=O)N2Cc2ccccc2)N3C(=O)OCC(C)C)c(OC)c(C)c1OC	> 100 µM (inactive)	47.1 µM (inactive)		40.6 µM (inactive)	> 69.8 µM (inactive)		> 100 µM (inactive)	> 100 µM (inactive)	
C=CCNC(=S)N1CC(C)C(=O)Nc2cc(Cl)ccc21 (centres undefined)	> 100 µM (inactive)	> 100 µM (inactive)	> 100 µM (inactive)		> 100 µM (inactive)	> 100 µM (inactive)	> 100 µM (inactive)	39.4 µM (inactive)	
C=CCNC1=C(C(=O)OCC)C(=O)CO1	> 100 µM (inactive)	> 100 µM (inactive)	> 100 µM (inactive)	> 100 µM (inactive)	> 100 µM (inactive)	> 100 µM (inactive)	> 100 µM (inactive)		> 100 µM (inactive)
C=C1C(=O)OC2/C=C(\CO)C3OC3C3OC3(C)CC(OC(=O)/C(=C/C)COC(C)=O)C12 (centres undefined)	1.11 µM (active)	3.12 µM (inactive)	1.73 µM (inactive)	1.8 µM (inactive)	6.17 µM (inactive)	5.87 µM (inactive)	1.88 µM (inactive)	9.79 µM (inactive)	
CC(=O)C(O)N1C(=O)C=CC1=O (centres undefined)	1.88 µM (inactive)	14.7 µM (inactive)	16.9 µM (inactive)	17.3 µM (inactive)		5.86 µM (inactive)	5.89 µM (inactive)	25.3 µM (inactive)	18.7 µM (inactive)
